In patent US20260049077A1, “Neurotrophic Receptor Tyrosine Kinase (NTRK) Inhibitors and Methods Using Same” (Baylor College of Medicine, priority 2022, published 2026):
Several values for one entry are separate records, joined by “and”; a condition that tells them apart may be missing. Equal entries are not always repeated. Where two headings read alike, the source gives them in different places.

Key:
[1] = Plasma ALT and AST in mice after a high dose (50 mg/kg); assay type: in vivo, mouse
CLK1 = CLK1 (Homo sapiens (Human), UniProt P49759); experiment: Promega K192 cell-based NanoBRET kinase occupancy assay
Procedure: (§1) Similarly, the selectivity of CDD-3031 for NTRK kinases was evaluated in a kinase occupancy assay (Promega K192 cell-based NanoBRET assay) using 192 kinases (Table 4).

TIE1 = TIE1 (Homo sapiens (Human), UniProt P35590); experiment: as above
Procedure: as §1

MAP3K19 = MAP3K19 (Homo sapiens (Human), UniProt Q56UN5); experiment: as above
Procedure: as §1

NEK5 = NEK5 (Homo sapiens (Human), UniProt Q6P3R8); experiment: as above
Procedure: as §1

CSNK1A1L = CSNK1A1L (Homo sapiens (Human), UniProt Q8N752); experiment: as above
Procedure: as §1

MKNK2 = MKNK2 (Homo sapiens (Human), UniProt Q9HBH9); experiment: as above
Procedure: as §1

DYRK1A = DYRK1A (Homo sapiens (Human), UniProt Q13627); experiment: as above
Procedure: as §1

TEK = TEK (Homo sapiens (Human), UniProt Q02763); experiment: as above
Procedure: as §1

AURKC = AURKC (Homo sapiens (Human), UniProt Q9UQB9); experiment: as above
Procedure: as §1

NTRK1 = NTRK1 (Homo sapiens (Human), UniProt P04629); experiment: as above
Procedure: as §1

ULK2 = ULK2 (Homo sapiens (Human), UniProt Q8IYT8); experiment: as above
Procedure: as §1

STK11 = STK11 (Homo sapiens (Human), UniProt Q15831); experiment: as above
Procedure: as §1

SGK1 = SGK1 (Homo sapiens (Human), UniProt O00141); experiment: as above
Procedure: as §1

WEE1 = WEE1 (Homo sapiens (Human), UniProt P30291); experiment: as above
Procedure: as §1

MAP3K12 = MAP3K12 (Homo sapiens (Human), UniProt Q12852); experiment: as above
Procedure: as §1

MUSK = MUSK (Homo sapiens (Human), UniProt O15146); experiment: as above
Procedure: as §1

FLT3 = FLT3 (Homo sapiens (Human), UniProt P36888); experiment: as above
Procedure: as §1

CDKL1 = CDKL1 (Homo sapiens (Human), UniProt Q00532); experiment: as above
Procedure: as §1

JAK2 (V617F) = JAK2 (V617F) (Homo sapiens (Human), UniProt O60674, V617F); experiment: as above
Procedure: as §1

AURKB = AURKB (Homo sapiens (Human), UniProt Q96GD4); experiment: as above
Procedure: as §1

ITK = ITK (Homo sapiens (Human), UniProt Q08881); experiment: as above
Procedure: as §1

NTRK2 = NTRK2 (Homo sapiens (Human), UniProt Q16620); experiment: as above
Procedure: as §1

[2] = plasma, 24 h after 50 mg/kg CDD-3031 by oral gavage, individual mice

Chain of TIE1 (P35590 22-1138): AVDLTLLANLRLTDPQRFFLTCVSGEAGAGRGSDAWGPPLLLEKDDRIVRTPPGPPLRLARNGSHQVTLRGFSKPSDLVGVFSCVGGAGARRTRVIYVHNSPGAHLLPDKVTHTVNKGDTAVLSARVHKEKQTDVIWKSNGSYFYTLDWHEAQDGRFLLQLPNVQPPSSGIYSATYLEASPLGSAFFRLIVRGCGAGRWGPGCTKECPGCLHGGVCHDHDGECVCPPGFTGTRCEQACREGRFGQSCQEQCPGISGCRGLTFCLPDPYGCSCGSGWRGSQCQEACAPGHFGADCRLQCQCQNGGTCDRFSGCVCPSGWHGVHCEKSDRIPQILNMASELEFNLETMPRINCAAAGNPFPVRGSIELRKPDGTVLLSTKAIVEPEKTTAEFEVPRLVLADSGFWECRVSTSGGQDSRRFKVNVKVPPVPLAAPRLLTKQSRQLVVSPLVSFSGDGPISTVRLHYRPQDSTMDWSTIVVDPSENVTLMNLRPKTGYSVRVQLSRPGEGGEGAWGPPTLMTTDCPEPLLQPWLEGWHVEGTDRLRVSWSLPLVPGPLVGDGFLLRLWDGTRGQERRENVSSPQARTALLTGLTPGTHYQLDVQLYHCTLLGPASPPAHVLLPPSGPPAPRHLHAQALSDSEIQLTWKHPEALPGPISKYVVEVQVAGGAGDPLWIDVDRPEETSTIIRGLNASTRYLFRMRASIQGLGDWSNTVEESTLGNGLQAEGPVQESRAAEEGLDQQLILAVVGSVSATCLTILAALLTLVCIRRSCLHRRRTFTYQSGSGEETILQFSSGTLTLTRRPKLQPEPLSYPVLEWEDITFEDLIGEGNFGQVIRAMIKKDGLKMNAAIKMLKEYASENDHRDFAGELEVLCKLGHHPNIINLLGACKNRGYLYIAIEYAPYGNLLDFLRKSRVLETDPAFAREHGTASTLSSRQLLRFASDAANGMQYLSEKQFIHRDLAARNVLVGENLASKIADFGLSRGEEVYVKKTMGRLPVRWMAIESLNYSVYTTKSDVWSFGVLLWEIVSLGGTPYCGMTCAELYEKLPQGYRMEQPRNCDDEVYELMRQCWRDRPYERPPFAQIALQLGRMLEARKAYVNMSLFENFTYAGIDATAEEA
Chain of FLT3 (P36888 27-993): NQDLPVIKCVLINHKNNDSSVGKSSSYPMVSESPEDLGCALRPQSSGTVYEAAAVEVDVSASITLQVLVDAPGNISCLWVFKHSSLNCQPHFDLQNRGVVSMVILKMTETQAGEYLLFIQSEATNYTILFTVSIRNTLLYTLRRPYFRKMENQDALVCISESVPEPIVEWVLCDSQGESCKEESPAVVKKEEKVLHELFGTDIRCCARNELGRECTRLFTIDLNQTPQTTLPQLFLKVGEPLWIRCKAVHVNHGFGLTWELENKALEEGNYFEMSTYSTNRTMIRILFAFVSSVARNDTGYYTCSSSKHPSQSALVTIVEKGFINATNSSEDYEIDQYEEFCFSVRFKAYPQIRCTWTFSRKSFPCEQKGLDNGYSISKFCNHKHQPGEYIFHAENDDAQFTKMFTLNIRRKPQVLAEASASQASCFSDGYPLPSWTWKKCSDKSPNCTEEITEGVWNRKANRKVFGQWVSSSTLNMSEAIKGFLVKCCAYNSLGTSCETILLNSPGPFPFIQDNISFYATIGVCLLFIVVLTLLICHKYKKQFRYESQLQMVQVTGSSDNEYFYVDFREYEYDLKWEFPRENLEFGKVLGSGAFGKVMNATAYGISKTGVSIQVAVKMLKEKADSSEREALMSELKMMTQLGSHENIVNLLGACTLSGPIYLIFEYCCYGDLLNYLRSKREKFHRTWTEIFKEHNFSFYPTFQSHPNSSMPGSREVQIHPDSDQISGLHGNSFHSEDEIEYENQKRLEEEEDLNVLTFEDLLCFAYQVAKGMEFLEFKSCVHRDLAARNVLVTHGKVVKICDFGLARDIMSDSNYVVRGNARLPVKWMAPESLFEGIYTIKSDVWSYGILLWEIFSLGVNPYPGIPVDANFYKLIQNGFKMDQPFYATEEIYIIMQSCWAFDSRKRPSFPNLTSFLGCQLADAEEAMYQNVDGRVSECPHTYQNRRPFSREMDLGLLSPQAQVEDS
Chain of MAP3K12 (Q12852 whole entry): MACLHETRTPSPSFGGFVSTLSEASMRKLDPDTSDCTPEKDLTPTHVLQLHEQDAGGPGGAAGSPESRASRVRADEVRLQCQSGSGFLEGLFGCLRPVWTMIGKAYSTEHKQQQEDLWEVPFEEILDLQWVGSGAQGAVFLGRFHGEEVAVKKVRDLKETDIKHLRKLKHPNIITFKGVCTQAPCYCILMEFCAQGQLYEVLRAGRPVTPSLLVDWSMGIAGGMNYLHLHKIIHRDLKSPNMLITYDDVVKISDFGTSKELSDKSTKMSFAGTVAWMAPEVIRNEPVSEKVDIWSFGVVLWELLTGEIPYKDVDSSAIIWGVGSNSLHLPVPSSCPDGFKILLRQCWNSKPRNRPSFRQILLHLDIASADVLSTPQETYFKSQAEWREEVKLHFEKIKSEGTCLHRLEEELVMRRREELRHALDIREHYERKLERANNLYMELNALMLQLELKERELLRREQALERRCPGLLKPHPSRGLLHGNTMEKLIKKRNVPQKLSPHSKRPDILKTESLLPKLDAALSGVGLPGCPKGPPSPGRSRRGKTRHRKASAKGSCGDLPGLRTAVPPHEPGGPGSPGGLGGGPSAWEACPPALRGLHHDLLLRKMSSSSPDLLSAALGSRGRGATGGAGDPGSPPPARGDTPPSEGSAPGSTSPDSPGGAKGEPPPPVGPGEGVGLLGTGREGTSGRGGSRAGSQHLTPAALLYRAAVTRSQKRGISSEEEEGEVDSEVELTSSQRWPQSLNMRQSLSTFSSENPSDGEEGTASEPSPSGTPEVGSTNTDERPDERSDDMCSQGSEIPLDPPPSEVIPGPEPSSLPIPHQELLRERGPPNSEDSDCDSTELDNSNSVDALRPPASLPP
Chain of NTRK1 (P04629 33-796): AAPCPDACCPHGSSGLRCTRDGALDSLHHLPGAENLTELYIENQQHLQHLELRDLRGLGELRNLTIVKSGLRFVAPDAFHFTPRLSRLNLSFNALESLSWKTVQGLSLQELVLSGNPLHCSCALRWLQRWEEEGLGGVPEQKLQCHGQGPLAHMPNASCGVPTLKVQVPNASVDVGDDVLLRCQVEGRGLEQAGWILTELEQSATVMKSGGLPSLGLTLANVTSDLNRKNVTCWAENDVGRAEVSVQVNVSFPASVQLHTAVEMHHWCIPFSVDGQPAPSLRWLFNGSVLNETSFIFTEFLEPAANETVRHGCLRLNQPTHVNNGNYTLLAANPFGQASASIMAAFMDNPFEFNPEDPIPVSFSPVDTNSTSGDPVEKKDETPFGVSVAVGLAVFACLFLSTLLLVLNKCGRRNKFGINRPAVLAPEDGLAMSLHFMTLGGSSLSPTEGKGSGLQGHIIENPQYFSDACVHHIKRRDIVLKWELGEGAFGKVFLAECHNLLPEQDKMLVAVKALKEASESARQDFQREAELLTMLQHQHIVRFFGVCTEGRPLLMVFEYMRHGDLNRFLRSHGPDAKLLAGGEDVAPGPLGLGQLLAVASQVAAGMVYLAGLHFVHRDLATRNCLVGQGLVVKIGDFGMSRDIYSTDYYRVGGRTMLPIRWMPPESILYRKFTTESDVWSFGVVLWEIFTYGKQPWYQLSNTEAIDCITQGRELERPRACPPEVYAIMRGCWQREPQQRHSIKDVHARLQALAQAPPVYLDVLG
Chain of NTRK2 (Q16620 32-822): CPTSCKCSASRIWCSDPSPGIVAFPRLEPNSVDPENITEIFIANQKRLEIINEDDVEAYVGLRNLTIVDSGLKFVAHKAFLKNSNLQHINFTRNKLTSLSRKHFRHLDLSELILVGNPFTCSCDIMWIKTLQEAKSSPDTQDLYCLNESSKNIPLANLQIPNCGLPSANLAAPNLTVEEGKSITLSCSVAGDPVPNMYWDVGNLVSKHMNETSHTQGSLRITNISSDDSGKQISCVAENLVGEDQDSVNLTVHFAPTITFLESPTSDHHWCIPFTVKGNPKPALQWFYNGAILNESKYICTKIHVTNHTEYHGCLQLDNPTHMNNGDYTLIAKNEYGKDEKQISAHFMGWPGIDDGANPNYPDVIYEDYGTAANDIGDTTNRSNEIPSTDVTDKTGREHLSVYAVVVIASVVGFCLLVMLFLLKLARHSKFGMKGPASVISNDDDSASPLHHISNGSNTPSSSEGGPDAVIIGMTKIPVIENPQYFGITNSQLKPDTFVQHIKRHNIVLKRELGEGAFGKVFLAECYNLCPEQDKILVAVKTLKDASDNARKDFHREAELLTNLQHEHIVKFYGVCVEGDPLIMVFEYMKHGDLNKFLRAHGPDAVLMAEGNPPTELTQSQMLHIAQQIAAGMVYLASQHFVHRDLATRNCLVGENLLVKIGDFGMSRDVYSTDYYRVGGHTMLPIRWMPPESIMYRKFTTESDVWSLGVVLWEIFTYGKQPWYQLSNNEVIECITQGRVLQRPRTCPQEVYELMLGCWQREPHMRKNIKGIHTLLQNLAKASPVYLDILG
Chain of STK11 (Q15831 whole entry): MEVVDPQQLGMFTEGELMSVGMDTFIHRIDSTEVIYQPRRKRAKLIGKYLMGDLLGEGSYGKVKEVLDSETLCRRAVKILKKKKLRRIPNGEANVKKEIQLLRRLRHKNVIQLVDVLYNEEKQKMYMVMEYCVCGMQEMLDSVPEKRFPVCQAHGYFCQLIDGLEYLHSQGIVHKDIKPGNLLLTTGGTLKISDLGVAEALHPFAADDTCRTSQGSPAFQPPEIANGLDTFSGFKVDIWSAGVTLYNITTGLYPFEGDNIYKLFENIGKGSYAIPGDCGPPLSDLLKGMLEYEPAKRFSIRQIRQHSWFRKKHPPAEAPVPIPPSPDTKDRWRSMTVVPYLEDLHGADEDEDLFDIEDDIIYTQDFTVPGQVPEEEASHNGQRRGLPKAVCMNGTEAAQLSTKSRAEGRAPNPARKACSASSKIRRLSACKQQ

CN(Cc1ccn2ncc(C(N)=O)c2c1)C(=O)Nc1ccc(OC(F)(F)F)cc1 [CDD-3031, 5-((1-methyl-3-(4-(trifluoromethoxy)phenyl)ureido)methyl)pyrazolo[1,5-a]pyridine-3-carboxamide]
potential liver and other tissue toxicity ([1]; high dose, 50 mg/kg): minimal effects
ALT [1, 2]: 35.89 IU/L and 24.49 IU/L and 52.86 IU/L and 48.18 IU/L
AST [1, 2]: 86.81 IU/L and 64.53 IU/L and 68.33 IU/L and 72.84 IU/L
receptor occupancy at 1 µM (CLK1; average, read-out: CLK1 kinase occupancy, Average (%)): 4.92%
receptor occupancy at 1 µM (CLK1; replicate 1, read-out: CLK1 kinase occupancy, Replicate 1 (%)): 3.65%
receptor occupancy at 1 µM (CLK1; replicate 2, read-out: CLK1 kinase occupancy, Replicate 2 (%)): 6.2%
receptor occupancy at 1 µM (TIE1; average, read-out: TIE1 kinase occupancy, Average (%)): 14%
receptor occupancy at 1 µM (TIE1; replicate 1, read-out: TIE1 kinase occupancy, Replicate 1 (%)): 8.54%
receptor occupancy at 1 µM (TIE1; replicate 2, read-out: TIE1 kinase occupancy, Replicate 2 (%)): 19.5%
receptor occupancy at 1 µM (MAP3K19; average, read-out: MAP3K19 kinase occupancy, Average (%)): 13.3%
receptor occupancy at 1 µM (MAP3K19; replicate 1, read-out: MAP3K19 kinase occupancy, Replicate 1 (%)): 53.3%
receptor occupancy at 1 µM (MAP3K19; replicate 2, read-out: MAP3K19 kinase occupancy, Replicate 2 (%)): -26.6%
receptor occupancy at 1 µM (NEK5; average, read-out: NEK5 kinase occupancy, Average (%)): 5.02%
receptor occupancy at 1 µM (NEK5; replicate 1, read-out: NEK5 kinase occupancy, Replicate 1 (%)): -0.81%
receptor occupancy at 1 µM (NEK5; replicate 2, read-out: NEK5 kinase occupancy, Replicate 2 (%)): 10.8%
receptor occupancy at 1 µM (CSNK1A1L; average, read-out: CSNK1A1L kinase occupancy, Average (%)): 4.58%
receptor occupancy at 1 µM (CSNK1A1L; replicate 1, read-out: CSNK1A1L kinase occupancy, Replicate 1 (%)): 9.24%
receptor occupancy at 1 µM (CSNK1A1L; replicate 2, read-out: CSNK1A1L kinase occupancy, Replicate 2 (%)): -0.08%
receptor occupancy at 1 µM (MKNK2; average, read-out: MKNK2 kinase occupancy, Average (%)): 4.61%
receptor occupancy at 1 µM (MKNK2; replicate 1, read-out: MKNK2 kinase occupancy, Replicate 1 (%)): 7.96%
receptor occupancy at 1 µM (MKNK2; replicate 2, read-out: MKNK2 kinase occupancy, Replicate 2 (%)): 1.26%
receptor occupancy at 1 µM (DYRK1A; average, read-out: DYRK1A kinase occupancy, Average (%)): 6.5%
receptor occupancy at 1 µM (DYRK1A; replicate 1, read-out: DYRK1A kinase occupancy, Replicate 1 (%)): 8.58%
receptor occupancy at 1 µM (DYRK1A; replicate 2, read-out: DYRK1A kinase occupancy, Replicate 2 (%)): 4.42%
receptor occupancy at 1 µM (TEK; average, read-out: TEK kinase occupancy, Average (%)): 10.2%
receptor occupancy at 1 µM (TEK; replicate 1, read-out: TEK kinase occupancy, Replicate 1 (%)): 13.1%
receptor occupancy at 1 µM (TEK; replicate 2, read-out: TEK kinase occupancy, Replicate 2 (%)): 7.34%
receptor occupancy at 1 µM (AURKC; average, read-out: AURKC kinase occupancy, Average (%)): 4.09%
receptor occupancy at 1 µM (AURKC; replicate 1, read-out: AURKC kinase occupancy, Replicate 1 (%)): -7.48%
receptor occupancy at 1 µM (AURKC; replicate 2, read-out: AURKC kinase occupancy, Replicate 2 (%)): 15.7%
receptor occupancy at 1 µM (NTRK1; average, read-out: NTRK1 kinase occupancy, Average (%)): 73.2%
receptor occupancy at 1 µM (NTRK1; replicate 1, read-out: NTRK1 kinase occupancy, Replicate 1 (%)): 71.4%
receptor occupancy at 1 µM (NTRK1; replicate 2, read-out: NTRK1 kinase occupancy, Replicate 2 (%)): 75%
receptor occupancy at 1 µM (ULK2; average, read-out: ULK2 kinase occupancy, Average (%)): 4.48%
receptor occupancy at 1 µM (ULK2; replicate 1, read-out: ULK2 kinase occupancy, Replicate 1 (%)): -5.12%
receptor occupancy at 1 µM (ULK2; replicate 2, read-out: ULK2 kinase occupancy, Replicate 2 (%)): 14.1%
receptor occupancy at 1 µM (STK11; average, read-out: STK11 kinase occupancy, Average (%)): 5.85%
receptor occupancy at 1 µM (STK11; replicate 1, read-out: STK11 kinase occupancy, Replicate 1 (%)): 6.96%
receptor occupancy at 1 µM (STK11; replicate 2, read-out: STK11 kinase occupancy, Replicate 2 (%)): 4.74%
receptor occupancy at 1 µM (SGK1; average, read-out: SGK1 kinase occupancy, Average (%)): 4.31%
receptor occupancy at 1 µM (SGK1; replicate 1, read-out: SGK1 kinase occupancy, Replicate 1 (%)): 1.93%
receptor occupancy at 1 µM (SGK1; replicate 2, read-out: SGK1 kinase occupancy, Replicate 2 (%)): 6.69%
receptor occupancy at 1 µM (WEE1; average, read-out: WEE1 kinase occupancy, Average (%)): 4.94%
receptor occupancy at 1 µM (WEE1; replicate 1, read-out: WEE1 kinase occupancy, Replicate 1 (%)): 9.23%
receptor occupancy at 1 µM (WEE1; replicate 2, read-out: WEE1 kinase occupancy, Replicate 2 (%)): 0.65%
receptor occupancy at 1 µM (MAP3K12; average, read-out: MAP3K12 kinase occupancy, Average (%)): 7.58%
receptor occupancy at 1 µM (MAP3K12; replicate 1, read-out: MAP3K12 kinase occupancy, Replicate 1 (%)): 21.2%
receptor occupancy at 1 µM (MAP3K12; replicate 2, read-out: MAP3K12 kinase occupancy, Replicate 2 (%)): -6.05%
receptor occupancy at 1 µM (MUSK; average, read-out: MUSK kinase occupancy, Average (%)): 19.8%
receptor occupancy at 1 µM (MUSK; replicate 1, read-out: MUSK kinase occupancy, Replicate 1 (%)): 17.5%
receptor occupancy at 1 µM (MUSK; replicate 2, read-out: MUSK kinase occupancy, Replicate 2 (%)): 22.2%
receptor occupancy at 1 µM (FLT3; average, read-out: FLT3 kinase occupancy, Average (%)): 7.12%
receptor occupancy at 1 µM (FLT3; replicate 1, read-out: FLT3 kinase occupancy, Replicate 1 (%)): -10.3%
receptor occupancy at 1 µM (FLT3; replicate 2, read-out: FLT3 kinase occupancy, Replicate 2 (%)): 24.6%
receptor occupancy at 1 µM (CDKL1; average, read-out: CDKL1 kinase occupancy, Average (%)): 8.23%
receptor occupancy at 1 µM (CDKL1; replicate 1, read-out: CDKL1 kinase occupancy, Replicate 1 (%)): 2.8%
receptor occupancy at 1 µM (CDKL1; replicate 2, read-out: CDKL1 kinase occupancy, Replicate 2 (%)): 13.7%
receptor occupancy at 1 µM (JAK2 (V617F); average, read-out: JAK2 (V617F) kinase occupancy, Average (%)): 9.92%
receptor occupancy at 1 µM (JAK2 (V617F); replicate 1, read-out: JAK2 (V617F) kinase occupancy, Replicate 1 (%)): 31.4%
receptor occupancy at 1 µM (JAK2 (V617F); replicate 2, read-out: JAK2 (V617F) kinase occupancy, Replicate 2 (%)): -11.6%
receptor occupancy at 1 µM (AURKB; average, read-out: AURKB kinase occupancy, Average (%)): 7.37%
receptor occupancy at 1 µM (AURKB; replicate 1, read-out: AURKB kinase occupancy, Replicate 1 (%)): 3.71%
receptor occupancy at 1 µM (AURKB; replicate 2, read-out: AURKB kinase occupancy, Replicate 2 (%)): 11%
receptor occupancy at 1 µM (ITK; average, read-out: ITK kinase occupancy, Average (%)): 5.61%
receptor occupancy at 1 µM (ITK; replicate 1, read-out: ITK kinase occupancy, Replicate 1 (%)): 14.2%
receptor occupancy at 1 µM (ITK; replicate 2, read-out: ITK kinase occupancy, Replicate 2 (%)): -2.94%
receptor occupancy at 1 µM (NTRK2; average, read-out: NTRK2 kinase occupancy, Average (%)): 92.9%
receptor occupancy at 1 µM (NTRK2; replicate 1, read-out: NTRK2 kinase occupancy, Replicate 1 (%)): 94.6%
receptor occupancy at 1 µM (NTRK2; replicate 2, read-out: NTRK2 kinase occupancy, Replicate 2 (%)): 91.2%
